Assay results taken from US20040259198A1, “Purified and isolated mat II beta subunit nucleic acids and polypeptides and therapeutic and screening methods using same” (priority 1999, published 2004).
Where two headings read alike, the source gives them in different places.

Experiments:
[1] = target: T1, MAT II from human leukemic cells (Homo sapiens, UniProt P31153); conditions: cited from earlier work
T1 construct: MAT II from human leukemic cells expressing both the α and β subunits of the enzyme; host or cells: human leukemic cells

[2] = test system: MAT I; conditions: cited from earlier work
[3] = test system: MAT III; conditions: cited from earlier work
[4] = test system: MAT II; assay: MAT activity and kinetics in extracts of transfected Cos-1 cells; format: biochemical, African green monkey; conditions: for Km: Cos-1 cells expressing high levels of rα2, two kinetic forms, read-out: Km for L-Met, lower-Km kinetic form
Procedure: Transfection of Cos-1 cells with pTargeT™/MAT2A or pTargeT™/MAT2B was done using the cationic lipid reagent, Transfast™ (Promega). Preliminary experiments were carried out to optimize the transfection conditions. Typically, 1.5×10^6 cells were plated in 100 mm dish one day prior to transfection. For each plate, […] of vector DNA was applied in the ratio of 1:1 to Transfast™ in a protein-free medium for 2 h. For cells co-transfected with both α2 and β vectors, […] DNA from each was used. For each experiment, one untransfected plate served as a normal control, and a second plate was transfected with the pTargeT™ vector only (mock-transfected cells). After 48 h, cells were harvested by trypsinization with a solution containing 0.05% trypsin and 0.53 mM EDTA in Hank's balanced salt solution (HBSS, from Cellgro). Trypsinization was stopped by the addition of media supplemented with 10% FCS, cells were pelleted, washed three times in 1 ml HBSS, counted, then resuspended in 1× extraction buffer with protease inhibitors (50 mM Tris, pH 7.4, 100 mM NaCl, 5 mM MgCl2, 4 mM dithiothreitol, 0.1 IU/ml aprotinin, 0.5 mM PMSF and […] soybean trypsin inhibitor). Cells were lysed by three cycles of quick freezing and thawing, and the lysate was clarified by centrifugation at 15,000×g for 10 min at 4° C. If not immediately used; cell extracts were stored at −80° C. Protein assays were performed using the bicinchoninic acid reagent (Sigma) following the manufacturer instructions.
MAT activity in cell extracts was assayed as previously described (Kotb, M., and Kredich, N. M. (1985) J. Biol. Chem. 260, 3923-30). […] The concentration of L-Met was varied between […] using ^14C-L-Met (57.9 mCi/mmol) to a concentration of up to […], and supplementary with cold L-Met for higher concentrations.

In the case of `C[S+](CC[C@H](N)C(=O)[O-])C[C@H]1O[C@@H](n2cnc3c(N)ncnc32)[C@H](O)[C@@H]1O` (stereo partly shown) [AdoMet, S-adenosylmethionine, reference compound], the “inhibition of enzyme activity” value ([1]; 25 μM AdoMet and 30 μM PPi) is listed as 3 fold, the “inhibition of enzyme activity” value ([1]; 25 μM AdoMet) is listed as about 2 fold and the “effect of AdoMet on enzyme” value [2] is listed as “inhibited”. For the same compound, the “effect of AdoMet on enzyme” value [3] was “activated”.
In the case of “MAT I: hepatic MAT, tetramer of the α1 catalytic subunit”, the Km ([2]; read-out: Km for L-Met) is given as 3 to 14 µM.
In the case of “MAT III: hepatic MAT, dimer of the α1 catalytic subunit”, the Km ([3]; read-out: Km for L-Met) is given as 100 to 200 µM.
With “recombinant human MAT II α2: recombinant catalytic α2 subunit of human MAT II, encoded by MAT2A, His-tagged” the Km ([4]; listed as rMAT II α2 protein) was 15.1 µM, the Km ([4]; listed as rα2) was 15 µM and the “effect on MAT (specific) activity” value ([4]; expression in Cos-1 cells, result in words) was “markedly increased”. The “increase in MAT activity” value ([4]; transfected Cos-1 cell extracts compared to untransfected (or mock-transfected) cells) was 3-4 fold.
